Here are results for 4 compounds from US20240131040A1, “COMPOSITIONS AND METHODS RELATED TO CANNABINOID ANIONS” (NATURAL EXTRACTION SYSTEMS, LLC, priority 2021, published 2024).

The subject of test [1] is individual who presented with cramping and restless legs syndrome. The experiment in a line: Case report: cramping and restless legs syndrome. Type of test: in vivo, humans. As to conditions: glycerol tincture before sleep. As to the method: An individual who presented with cramping and restless legs syndrome was administered a glycerol tincture containing the cannabidiol anion before sleep.

Test [2] has as its system individual who presented with knee pain associated with inflammation caused by trauma from a fall. The experiment in a line: Case report: knee pain. The class given is in vivo, humans. Conditions: glycerol tincture, ingested. As to the method:
An individual who presented with knee pain associated with inflammation caused by trauma from a fall was administered a glycerol tincture containing the cannabidiol anion.

The subject of test [3] is dog that suffers from chronic seizures. Briefly: Case report: epilepsy in a dog. The class given is in vivo. As to conditions: glycerol tincture immediately after the onset of a seizure. As to the method:
A dog that suffers from chronic seizures was administered a glycerol tincture containing the cannabidiol anion immediately after the onset of a seizure.

In test [4] the test system is individual who presented with hip pain associated with sitting. Briefly: Case report: chronic hip pain. The class given is in vivo, humans. Conditions: glycerol tincture, ingested. As to the method: An individual who presented with hip pain associated with sitting was administered a glycerol tincture containing the cannabidiol anion.
Test [5] deals with individual who presented with chronic pain. The experiment in a line: Case report: chronic pain. As to conditions: glycerol tincture. Type of test: in vivo, humans. As to the method:
An individual who presented with chronic pain was administered a glycerol tincture containing the cannabidiol anion.

Test [6] relates to individual with hip pain and lower back pain associated with spinal fusion surgery. Briefly: Case report: post laminectomy syndrome. Conditions: glycerol tincture, ingested. The class given is in vivo, humans. Here is the method:
An individual with hip pain and lower back pain associated with spinal fusion surgery was administered a glycerol tincture containing the cannabidiol anion.

The subject of test [7] is individual who presented with social anxiety associated with presenting at business meetings. The experiment in a line: Case report: social anxiety. Type of test: in vivo, humans. As to conditions: beverage containing the anion, before presenting. Here is the method: An individual who presented with social anxiety associated with presenting at business meetings was administered a beverage containing the cannabidiol anion before presenting.

The test system of test [8] is individual who presented with cancer pain caused by throat cancer. Briefly: Case report: cancer pain. Type of test: in vivo, humans. Conditions: water containing the anion, ingested. Here is the method:
An individual who presented with cancer pain caused by throat cancer was administered water containing the cannabidiol anion (2-[6-isopropenyl-3-methylcyclohex-2-enyl]-3-hydroxy-5-pentylphenolate).

Test [9] has as its system individual who presented with back pain associated with driving for prolonged periods of time. The experiment in a line: Case report: acute back pain. Type of test: in vivo, humans. As to conditions: glycerol tincture, ingested. As to the method: An individual who presented with back pain associated with driving for prolonged periods of time was administered a glycerol tincture containing the cannabidiol anion.

Test [10] has as its system individual with arthritis. Briefly: Case report: arthritis. Type of test: in vivo, humans. As to conditions: glycerol tincture. As to the method: An individual who was unable to fill […] hydroxychloroquine prescription to treat the arthritis during the COVID-19 pandemic was administered a glycerol tincture containing the cannabidiol anion.
In test [11] the test system is individual who presented with chronic back pain associated with standing. Briefly: Case report: chronic back pain. The class given is in vivo, humans. Conditions: glycerol tincture, ingested. As to the method:
An individual who presented with chronic back pain associated with standing was administered a glycerol tincture containing the cannabidiol anion.

The next test deals with individuals with anxiety. The experiment in a line: Case reports: anxiety. Type of test: in vivo, humans. As to the method: An individual was administered a beverage containing the cannabidiol anion prior to driving to an airport to catch a flight that was scheduled to leave within thirty minutes of the arrival at the airport.
An individual who suffers from chronic anxiety was administered a glycerol tincture containing the cannabigerol anion.

For test [12], the system named is individual who presented with plaque psoriasis. The experiment in a line: Case report: plaque psoriasis. Type of test: in vivo, humans. Conditions: glycerol formulation, topical. An excerpt: An individual who presented with plaque psoriasis topically administered a glycerol formulation containing the cannabigerol anion.
The subject of test [13] is individual who presented with Inflammatory Bowel Disease. The experiment in a line: Case report: Inflammatory Bowel Disease. Type of test: in vivo, humans. As to conditions: glycerol tincture. Here is the method:
An individual who presented with Inflammatory Bowel Disease was administered a glycerol tincture containing the cannabigerol anion.

The subject of test [14] is individual who presented with peripheral neuropathy. Briefly: Case report: peripheral neuropathy. Type of test: in vivo, humans. As to conditions: glycerol formulation, topical. An excerpt: An individual who presented with peripheral neuropathy topically administered a glycerol formulation containing the cannabigerol anion.
The subject of test [15] is individual who presented with chronic insomnia. Briefly: Case report: insomnia. The class given is in vivo, humans. Conditions: glycerol tincture before sleep. As to the method: An individual who presented with chronic insomnia was administered a glycerol tincture containing the cannabigerol anion before sleep.
In test [16] the test system is individual who presented with Crohn's disease. The experiment in a line: Case report: Crohn's disease. As to conditions: glycerol tincture. The class given is in vivo, humans. As to the method: An individual who presented with Crohn's disease was administered a glycerol tincture containing the cannabigerol anion.
A further test deals with Female Sabra mice. Briefly: Zymosan A right hind paw arthritis model: paw swelling (calipers) and pain (Von Frey). As to conditions: relative to vehicle control groups, 1-64 mg/kg/day oral gavage for one month; for right hind paw inflammation: swelling at 1, 2, 6, 12, 24 hours after zymosan A; for right hind paw pain: Von Frey hair aesthesiometer. Type of test: in vivo. As to the method:
(§1) Female Sabra mice are administered either vehicle or a cannabinoid. The cannabinoid is selected from 2-geranyl-5-pentylbenzene-1,3-diol (“cannabigerol”) and 2-geranyl-5-propylbenzene-1,3-diol (“cannabigerovarin”). The cannabinoid is administered at an amount of either 1, 2, 4, 8, 16, 32, or 64 milligrams cannabinoid per kilogram mouse body weight per day by oral gavage beginning when they are two months old.
(§2) Following one month of administration of either vehicle or a cannabinoid, 30 microliters of a 2 percent weight-by-volume suspension of zymosan A in saline is injected into each right hind paw of the mice. Inflammation is measured with calipers to determine right hind paw swelling at 1, 2, 6, 12, and 24 hours following the zymosan A injection relative to left hind paw. Pain is measured with a Von Frey hair aesthesiometer to determine right hind paw sensitivity to force relative to left hind paw. Serum TNF-alpha concentration is measured at 24 hours by enzyme-linked immunosorbent assay.

The test system of test [17] is neutrophil-mediated inflammation. Briefly: Zymosan A knee arthritis model: neutrophil elastase imaging and transcript RT-PCR. Type of test: in vivo. Conditions: male C57BL/6J mice; for imaged right knee neutrophil elastase: relative to vehicle control group, imaged 4 hours post-injection, 1-64 mg/kg/day oral gavage; for adamts4 transcripts / myeloperoxidase transcripts / neutrophil elastase transcripts: relative to vehicle control groups, real-time PCR. Here is the method: Male C57BL/6J mice are administered either vehicle or a cannabinoid. The cannabinoid is selected from cannabigerol and cannabigerovarin. The cannabinoid is administered at an amount of either 1, 2, 4, 8, 16, 32, or 64 milligrams cannabinoid per kilogram mouse body weight per day by oral gavage beginning when they are two months old.
Following one month of administration, mice are anesthetized with isoflurane and then 180 micrograms of zymosan A in saline is injected into the right knee of each mouse. Equivalent volumes of saline are injected into the left knee of each mouse. Mice are then injected with Neutrophil Elastase 680 FAST imaging probe (Perkin Elmer, Massachusetts, United States) and imaged 4 hours post-injection using an IVIS Spectrum In Vivo Imaging System (Perkin Elmer) to measure neutrophil-mediated inflammation. Mouse RNA is extracted and purified, and then relative adamts4 transcript, relative neutrophil elastase transcript, and relative myeloperoxidase transcript concentrations are measured following reverse transcription using real-time polymerase chain reactions.
(In general: In qPCR the cycle at which signal appears reflects the starting amount.)

The next test deals with Mice fed a high-fat diet. Briefly: Diet-induced obesity model: body weight, serum ALT/AST, liver steatosis. Type of test: in vivo. As to conditions: 1-64 mg/kg/day oral gavage for two months; for liver steatosis: hematoxylin and eosin staining. Here is the method:
Mice are fed either a control standard diet or a high-fat diet beginning when they are two months old. The mice are concomitantly administered either vehicle or a cannabinoid selected from cannabigerol and cannabigerovarin at an amount of either 1, 2, 4, 8, 16, 32, or 64 milligrams cannabinoid per kilogram mouse body weight per day by oral gavage.
Mouse body weights are measured daily. The mice are sacrificed when they are four months old following two months of the diet, cannabinoid (or vehicle), and weighing. Serum alanine aminotransferase (“ALT”) and serum aspartate aminotransferase (“AST”) are measured using a Reflotran Plus blood chemistry system (Roche, Switzerland). Mouse livers are fixed and then stained with hematoxylin and eosin to visualize liver steatosis.

In a further test the test system is TNF-alpha. Briefly: Serum TNF-alpha by enzyme-linked immunosorbent assay in zymosan A paw model. Type of test: in vivo, mice. As to conditions: relative to vehicle control groups; 24 hours after zymosan A; 1-64 mg/kg/day oral gavage. Here is the method: as §1, §2

Take `C=C(C)C1CCC(C)=CC1c1c(O)cc(CCCCC)cc1O` (stereo not shown) [cannabidiol anion, 2-[6-isopropenyl-3-methylcyclohex-2-enyl]-3-hydroxy-5-pentylphenolate]: in test [1], the “sleep quality (self-reported)” value is reported as “significant improvement in sleep quality”. Further, the “mobility and knee pain (self-reported)” value in test [2] is “improved mobility and alleviation of knee pain within minutes of ingestion”. Also, the “seizures (reported by owners)” value in [3] was “both instantaneously and consistently arrested multiple seizures in the dog”. The “hip pain (self-reported)” value in test [4] was “notable alleviation of the hip pain within minutes of ingestion”. Moreover, the “chronic pain (self-reported)” value in test [5] is on record as “alleviation of pain that significantly improved their standard of living”. Besides, the “hip pain and lower back pain (self-reported)” value in test [6] was “notable alleviation of hip pain and lower back pain within minutes of ingestion”. In [7], the “social anxiety and performance during business meeting (self-reported)” value was “reduced anxiety and improved performance during the business meeting”. The “throat pain (self-reported)” value in test [8] is on record as “notable alleviation of throat pain within minutes of ingestion”. In addition, the “back pain (self-reported)” value in [9] and in test [11] was “notable alleviation of the back pain within minutes of ingestion” throughout. Further, in test [10], the “treatment of arthritis compared with hydroxychloroquine (self-reported)” value was “more effective at treating their arthritis than hydroxychloroquine”. Moreover, the “anxiety during drive to airport (self-reported)” value with individuals with anxiety (beverage containing the anion, before driving) is listed as “notable absence of anxiety”.

On to `CCCCCc1cc(O)c(C/C=C(\C)CCC=C(C)C)c(O)c1` [cannabigerol anion, 2-geranyl-3-hydroxy-5-pentylphenolate], for which, in test [12], the “plaque psoriasis symptoms (self-reported)” value was “significant improvement in their plaque psoriasis symptoms”. The “symptoms of Inflammatory Bowel Disease (self-reported)” value in test [13] is given as “significant improvement in their symptoms of Inflammatory Bowel Disease”. In addition, in test [14], the “peripheral neuropathy symptoms (self-reported)” value was “significant improvement in their peripheral neuropathy symptoms”. In addition, in test [15], the “onset and quality of sleep (self-reported)” value was “significant improvement in the onset and quality of their sleep”. Besides, the “chronic anxiety symptoms (self-reported)” value with individuals with anxiety (glycerol tincture) is “significant improvement in their anxiety symptoms”. In [16], the “symptoms of Crohn's disease (self-reported)” value is “significant improvement in their symptoms of Crohn's disease”.

For `CCCCCc1cc(O)c(C/C=C(\C)CCC=C(C)C)c(O)c1` [cannabigerol, 2-geranyl-5-pentylbenzene-1,3-diol], in the test on Female Sabra mice, the “right hind paw inflammation” value was “dose-dependent reduction” and the “right hind paw pain” value is recorded as “dose-dependent reduction”. For the same compound, in test [17], the “imaged right knee neutrophil elastase” value is given as “dose-dependent reduction”, the adamts4 transcripts result is “dose-dependent reduction”, the myeloperoxidase transcripts entry is recorded as “dose-dependent reduction” and the neutrophil elastase transcripts result is recorded as “dose-dependent reduction”. Also, in the test on Mice fed a high-fat diet, the body weight result is recorded as “dose-dependent reduction”, the “serum ALT” value is listed as “dose-dependent reduction”, the “serum AST” value is recorded as “dose-dependent reduction” and the liver steatosis result is listed as “dose-dependent reduction”. In the test with TNF-alpha, the “serum TNF-alpha concentration” value is reported as “dose-dependent reduction”.

As for `CCCc1cc(O)c(C/C=C(\C)CCC=C(C)C)c(O)c1` [cannabigerovarin, 2-geranyl-5-propylbenzene-1,3-diol], in the test on Female Sabra mice, the “right hind paw inflammation” value is “dose-dependent reduction” and the “right hind paw pain” value is listed as “dose-dependent reduction”. Further, in [17], the “imaged right knee neutrophil elastase” value is given as “dose-dependent reduction”, the adamts4 transcripts entry is on record as “dose-dependent reduction”, the myeloperoxidase transcripts result was “dose-dependent reduction” and the neutrophil elastase transcripts entry is on record as “dose-dependent reduction”. In the test on Mice fed a high-fat diet, the body weight result is “dose-dependent reduction”, the “serum ALT” value was “dose-dependent reduction”, the “serum AST” value is “dose-dependent reduction” and the liver steatosis result was “dose-dependent reduction”. The “serum TNF-alpha concentration” value in the test on TNF-alpha is “dose-dependent reduction”.
